Reference: article PMC9389804 (Journal of Hematology & Oncology, 2022)
Where “and” joins values, the source holds several entries; their conditions need not be identical. Equal values may be shown once.

Assay: safety assessments (adverse events, NCI CTCAE)
[1] = Grade 3/4 hematologic TRAE, all 165 patients
[2] = TRAE G 3/4, Accelerated phase CML n=38
[3] = TRAE G 3/4, Chronic phase CML n=127
[4] = TRAE any grades, Accelerated phase CML n=38
[5] = TRAE any grades, Chronic phase CML n=127

Description: Adverse events were assessed continuously and graded according to NCI CTCAE v5.0.18. Complete blood count with differential, serum chemistries, and physical examinations were performed before the study; weekly during Cycles 1 and 2; on alternate weeks in Cycles 3 and 4; and monthly thereafter.

Cc1ccc(C(=O)Nc2ccc(CN3CCN(C)CC3)c(C(F)(F)F)c2)cc1C#Cc1cnc2[nH]ncc2c1 [olverembatinib]
Anemia [1]: 23.0%
Neutropenia [1]: 11.5%
Thrombocytopenia [1]: 51.5%
Anemia [2]: 12 (31.6) n (%)
Arthralgia [2]: 1 (2.6) n (%)
Asthenia [2]: 0 n (%)
Hematologic [2]: 26 (68.4) n (%)
Hyperbilirubinemia [2]: 1 (2.6) n (%)
Hyperglycemia [2]: 0 n (%)
Hypertriglyceridemia [2]: 1 (2.6) n (%)
Hypoalbuminemia [2]: 0 n (%)
Hypocalcemia [2]: 0 n (%)
Hypokalemia [2]: 1 (2.6) n (%)
Hyponatremia [2]: 0 n (%)
Increased alanine aminotransferase [2]: 1 (2.6) n (%)
Increased alkaline phosphatase [2]: 0 n (%)
Increased aspartate aminotransferase [2]: 2 (5.3) n (%)
Increased creatine phosphokinase [2]: 1 (2.6) n (%)
Increased γ-glutamyl transferase [2]: 0 n (%)
Leukopenia [2]: 13 (34.2) n (%)
Myalgia [2]: 0 n (%)
Neutropenia [2]: 8 (21.1) n (%)
Nonhematologic [2]: 20 (52.6) n (%)
Pain in extremity [2]: 1 (2.6) n (%)
Proteinuria [2]: 1 (2.6) n (%)
Pyrexia [2]: 4 (10.5) n (%)
Rash [2]: 0 n (%)
Sinus tachycardia [2]: 0 n (%)
Skin pigmentation [2]: 0 n (%)
Thrombocytopenia [2]: 23 (60.5) n (%)
Treatment-related adverse events [2]: 34 (89.5) n (%)
Anemia [3]: 26 (20.5) n (%)
Arthralgia [3]: 0 n (%)
Asthenia [3]: 0 n (%)
Hematologic [3]: 67 (52.8) n (%)
Hyperbilirubinemia [3]: 3 (2.4) n (%)
Hyperglycemia [3]: 1 (0.8) n (%)
Hypertriglyceridemia [3]: 11 (8.7) n (%)
Hypoalbuminemia [3]: 0 n (%)
Hypocalcemia [3]: 0 n (%)
Hypokalemia [3]: 1 (0.8) n (%)
Hyponatremia [3]: 1 (0.8) n (%)
Increased alanine aminotransferase [3]: 3 (2.4) n (%)
Increased alkaline phosphatase [3]: 1 (0.8) n (%)
Increased aspartate aminotransferase [3]: 2 (1.6) n (%)
Increased creatine phosphokinase [3]: 10 (7.9) n (%)
Increased γ-glutamyl transferase [3]: 5 (3.9) n (%)
Leukopenia [3]: 21 (16.5) n (%)
Myalgia [3]: 0 n (%)
Neutropenia [3]: 11 (8.7) n (%)
Nonhematologic [3]: 61 (48.0) n (%)
Pain in extremity [3]: 1 (0.8) n (%)
Proteinuria [3]: 5 (3.9) n (%)
Pyrexia [3]: 5 (3.9) n (%)
Rash [3]: 1 (0.8) n (%)
Sinus tachycardia [3]: 0 n (%)
Skin pigmentation [3]: 0 n (%)
Thrombocytopenia [3]: 62 (48.8) n (%)
Treatment-related adverse events [3]: 97 (76.4) n (%)
Anemia (TRAE G 3/4, Total n=165): 38 (23.0) n (%)
Arthralgia (TRAE G 3/4, Total n=165): 1 (0.6) n (%)
Asthenia (TRAE G 3/4, Total n=165): 0 n (%)
Hematologic (TRAE G 3/4, Total n=165): 93 (56.4) n (%)
Hyperbilirubinemia (TRAE G 3/4, Total n=165): 4 (2.4) n (%)
Hyperglycemia (TRAE G 3/4, Total n=165): 1 (0.6) n (%)
Hypertriglyceridemia (TRAE G 3/4, Total n=165): 12 (7.3) n (%)
Hypoalbuminemia (TRAE G 3/4, Total n=165): 0 n (%)
Hypocalcemia (TRAE G 3/4, Total n=165): 0 n (%)
Hypokalemia (TRAE G 3/4, Total n=165): 2 (1.2) n (%)
Hyponatremia (TRAE G 3/4, Total n=165): 1 (0.6) n (%)
Increased alanine aminotransferase (TRAE G 3/4, Total n=165): 4 (2.4) n (%)
Increased alkaline phosphatase (TRAE G 3/4, Total n=165): 1 (0.6) n (%)
Increased aspartate aminotransferase (TRAE G 3/4, Total n=165): 4 (2.4) n (%)
Increased creatine phosphokinase (TRAE G 3/4, Total n=165): 11 (6.7) n (%)
Increased γ-glutamyl transferase (TRAE G 3/4, Total n=165): 5 (3.0) n (%)
Leukopenia (TRAE G 3/4, Total n=165): 34 (20.6) n (%)
Myalgia (TRAE G 3/4, Total n=165): 0 n (%)
Neutropenia (TRAE G 3/4, Total n=165): 19 (11.5) n (%)
Nonhematologic (TRAE G 3/4, Total n=165): 81 (49.1) n (%)
Pain in extremity (TRAE G 3/4, Total n=165): 2 (1.2) n (%)
Proteinuria (TRAE G 3/4, Total n=165): 6 (3.6) n (%)
Pyrexia (TRAE G 3/4, Total n=165): 9 (5.5) n (%)
Rash (TRAE G 3/4, Total n=165): 1 (0.6) n (%)
Sinus tachycardia (TRAE G 3/4, Total n=165): 0 n (%)
Skin pigmentation (TRAE G 3/4, Total n=165): 0 n (%)
Thrombocytopenia (TRAE G 3/4, Total n=165): 85 (51.5) n (%)
Treatment-related adverse events (TRAE G 3/4, Total n=165): 131 (79.4%) n (%) and 131 (79.4) n (%)
Anemia [4]: 24 (63.2) n (%)
Arthralgia [4]: 8 (21.1) n (%)
Asthenia [4]: 6 (15.8) n (%)
Hematologic [4]: 36 (94.7) n (%)
Hyperbilirubinemia [4]: 13 (34.2) n (%)
Hyperglycemia [4]: 10 (26.3) n (%)
Hypertriglyceridemia [4]: 23 (60.5) n (%)
Hypoalbuminemia [4]: 6 (15.8) n (%)
Hypocalcemia [4]: 19 (50.0) n (%)
Hypokalemia [4]: 10 (26.3) n (%)
Hyponatremia [4]: 10 (26.3) n (%)
Increased alanine aminotransferase [4]: 9 (23.7) n (%)
Increased alkaline phosphatase [4]: 5 (13.2) n (%)
Increased aspartate aminotransferase [4]: 10 (26.3) n (%)
Increased creatine phosphokinase [4]: 5 (13.2) n (%)
Increased γ-glutamyl transferase [4]: 9 (23.7) n (%)
Leukopenia [4]: 19 (50.0) n (%)
Myalgia [4]: 8 (21.1) n (%)
Neutropenia [4]: 8 (21.1) n (%)
Nonhematologic [4]: 38 (100.0) n (%)
Pain in extremity [4]: 7 (18.4) n (%)
Proteinuria [4]: 19 (50.0) n (%)
Pyrexia [4]: 9 (23.7) n (%)
Rash [4]: 8 (21.1) n (%)
Sinus tachycardia [4]: 7 (18.4) n (%)
Skin pigmentation [4]: 31 (81.6) n (%)
Thrombocytopenia [4]: 33 (86.8) n (%)
Treatment-related adverse events [4]: 38 (100.0) n (%)
Anemia [5]: 66 (52.0) n (%)
Arthralgia [5]: 11 (8.7) n (%)
Asthenia [5]: 12 (9.4) n (%)
Hematologic [5]: 102 (80.3) n (%)
Hyperbilirubinemia [5]: 56 (44.1) n (%)
Hyperglycemia [5]: 33 (26.0) n (%)
Hypertriglyceridemia [5]: 72 (56.7) n (%)
Hypoalbuminemia [5]: 20 (15.7) n (%)
Hypocalcemia [5]: 45 (35.4) n (%)
Hypokalemia [5]: 32 (25.2) n (%)
Hyponatremia [5]: 28 (22.0) n (%)
Increased alanine aminotransferase [5]: 50 (39.4) n (%)
Increased alkaline phosphatase [5]: 16 (12.6) n (%)
Increased aspartate aminotransferase [5]: 49 (38.6) n (%)
Increased creatine phosphokinase [5]: 43 (33.9) n (%)
Increased γ-glutamyl transferase [5]: 38 (29.9) n (%)
Leukopenia [5]: 37 (29.1) n (%)
Myalgia [5]: 23 (18.1) n (%)
Neutropenia [5]: 18 (14.2) n (%)
Nonhematologic [5]: 127 (100.0) n (%)
Pain in extremity [5]: 14 (11.0) n (%)
Proteinuria [5]: 65 (51.2) n (%)
Pyrexia [5]: 21 (16.5) n (%)
Rash [5]: 19 (15.0) n (%)
Sinus tachycardia [5]: 23 (18.1) n (%)
Skin pigmentation [5]: 108 (85.0) n (%)
Thrombocytopenia [5]: 93 (73.2) n (%)
Treatment-related adverse events [5]: 127 (100.0) n (%)
Anemia (TRAE any grades, Total n=165): 90 (54.5) n (%)
Arthralgia (TRAE any grades, Total n=165): 19 (11.5) n (%)
Asthenia (TRAE any grades, Total n=165): 18 (10.9) n (%)
